US20260191782A1, “URIDINE TRIACETATE AMORPHOUS FORMULATION AND USES THEREOF” (PHARMA CINQ, LLC, priority 2022, published 2026)

How the values were obtained:
[1] = tested on: primary mitochondrial disease; assay: Treatment of primary mitochondrial disease (patient example); assay type: in vivo, human; conditions: PMD patient, dose increased to 100 mg/kg/dose twice daily
Description: A patient is diagnosed with primary mitochondrial disease by identification of pathogenic mutations known to impair mitochondrial oxidative phosphorylation (by whole exome sequencing and comparison with a database of known pathogenic genetic variants) combined with symptoms consistent with PMD, in this case including recurrent epileptic seizures, developmental delays, proximal renal tubular acidosis requiring bicarbonate supplementation, and exercise intolerance with early onset of fatigue during exertion. […] Within about one week, seizure frequency declines by more than 50%, and daily bicarbonate requirements to compensate for excessive urinary excretion due to proximal tubular acidosis is reduced from 200 milliEquivalents per day to less than 25. With the therapeutic goal of maintaining plasma bicarbonate above 20 mEq/liter. After several additional weeks, endurance during exercise improves, as measured by timed walking distance and standard clinical measures of subjective fatigue.

[2] = cited from earlier work

Q: Which seizure frequency [1] does the source give for CC(=O)OC[C@H]1O[C@@H](n2ccc(=O)[nH]c2=O)[C@H](OC(C)=O)[C@@H]1OC(C)=O [Uridine triacetate, 2′,3′,5′-Tri-O-acetyluridine] here?
A: decreases further

Q: And the solubility in water [2]?
A: approximately 10 milligrams per milliliter
